Values quoted from earlier work as cited in PMC7982506 (Acta Pharmaceutica Sinica. B, 2020).

How the values were obtained:
[1] = target: T1, SHP2-PTP (Homo sapiens, UniProt Q06124); settings: read-out: IC50 reported previously
T1 sequence (Q06124 237-535): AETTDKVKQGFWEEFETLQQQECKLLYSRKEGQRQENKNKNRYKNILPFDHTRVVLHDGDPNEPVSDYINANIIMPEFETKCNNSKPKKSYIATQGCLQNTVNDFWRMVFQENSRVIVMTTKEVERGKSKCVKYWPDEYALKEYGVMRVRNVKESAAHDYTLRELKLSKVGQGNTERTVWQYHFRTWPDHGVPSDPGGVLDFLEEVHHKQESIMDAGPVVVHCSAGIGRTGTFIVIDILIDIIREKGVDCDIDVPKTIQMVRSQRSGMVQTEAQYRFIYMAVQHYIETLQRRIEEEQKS

[2] = test system: p-ERK; settings: versus SHP099
[3] = test system: cell growth; settings: versus SHP099
[4] = target: T2, SHP2-WT (Homo sapiens, UniProt Q06124); settings: read-out: EC50 of p-IRS1 peptide for SHP2-WT, previously reported
T2 sequence (Q06124 1-535): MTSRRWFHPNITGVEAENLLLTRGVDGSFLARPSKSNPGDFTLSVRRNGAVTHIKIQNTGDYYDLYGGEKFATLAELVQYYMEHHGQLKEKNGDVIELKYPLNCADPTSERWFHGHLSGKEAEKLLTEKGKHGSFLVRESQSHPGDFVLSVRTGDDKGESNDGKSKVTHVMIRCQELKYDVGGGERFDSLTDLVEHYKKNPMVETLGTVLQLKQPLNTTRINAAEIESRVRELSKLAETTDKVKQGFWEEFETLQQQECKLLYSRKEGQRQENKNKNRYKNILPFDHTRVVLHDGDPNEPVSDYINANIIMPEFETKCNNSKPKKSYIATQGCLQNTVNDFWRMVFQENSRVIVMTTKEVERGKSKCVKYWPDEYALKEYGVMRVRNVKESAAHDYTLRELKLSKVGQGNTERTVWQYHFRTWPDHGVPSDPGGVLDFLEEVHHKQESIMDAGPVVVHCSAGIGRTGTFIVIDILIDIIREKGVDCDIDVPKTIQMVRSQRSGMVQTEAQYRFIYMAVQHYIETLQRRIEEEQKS

Compound: [Na+].[Na+].[Na+].[O]=[V]([O-])([O-])[O-] [Na3VO4]
- IC50 [1]: 10 µM

Compound: Cc1ncsc1-c1ccc([C@H](C)NC(=O)[C@@H]2C[C@@H](O)CN2C(=O)[C@@H](NC(=O)CCCCCCCCN2CCN(C(=O)CCC(=O)Nc3cccc(Sc4ncc(N5CCC(C)(N)CC5)nc4N)c3Cl)CC2)C(C)(C)C)cc1 [SHP2-D26]
- fold more potent than SHP099 in inhibition of p-ERK [2]: 30 fold
- fold more potent than SHP099 in inhibition of cell growth [3]: 30 fold

Compound: H2N-LN(pY)IDLDLV(dPEG8)LST(pY)ASINFQK-amide [p-IRS1 peptide]
- EC50 [4]: 0.25 µM
